Structures are written as SMILES.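 Cultured in 96-well plates, cells were exposed to test compound for 48 hours across five concentrations. At the GI50, growth is halved. At the TGI there is no net growth.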 Some results are limits rather than exact numbers.

The subject of the first assay is OVCAR-4 ovarian. Briefly: NCI tumour cell line growth inhibition, 48 h.
`Nc1ccn(C2C=C(CO)C(O)C2O)c(=O)c1` (stereo unspecified) yielded a TGI above 625 µM.

Consider `COc1nc(=O)n(COC(CO)CN2C(=O)c3ccccc3C2=O)cc1Cc1cccc(OCc2ccccc2)c1` (stereo unspecified), for which the TGI was 57.8 µM.

A further assay deals with NCI/ADR-RES ovarian. Briefly: NCI tumour cell line growth inhibition, 48 h.
Compound `N#C[C@H](OC1OC(COC2OC(CO)C(O)C(O)C2O)C(O)C(O)C1O)c1ccccc1` (stereo partly specified) registered a TGI above 250 µM.

Compound `Cn1c(=O)c2[nH]c(CCNC(=O)c3ccccc3)nc2n(C)c1=O` yielded a TGI above 100 µM.

As to `Cc1cc(S(=O)(=O)Nc2nc3ccccc3nc2-c2cccc([N+](=O)[O-])c2)c(S)cc1Cl`, the TGI turned out to be 48.3 µM.

On to `O=c1ssc(=Nc2ccccc2)n1-c1ccccc1`, for which the TGI came to 68.2 µM.

For `NCCSS(=O)(=O)CCN`, the TGI was above 100 µM.

Compound `CC(=O)Oc1cc2c(cc1OC(C)=O)OCC(c1ccccc1)C2` (stereo unspecified) returned a TGI of 134 µM.

In turn, `OCCNCCN1CCN(CCCN2c3ccccc3Sc3ccc(C(F)(F)F)cc32)CC1` yielded a TGI of 54.6 µM.

Turning to `O=C(CCl)NNC1=Nc2ccc(Cl)cc2SC1`, the TGI stood at 3.79 µM.

Take `COc1c(Br)cc2c(c1OC)C(Br)CCC(Br)(Br)C2=O` (stereo unspecified): the TGI came out at 2.77 µM.

With `O=C1C=CC2(C=C1)O[C@H](Cc1ccccc1)[C@@H](Cc1ccccc1)O2`, the TGI is 1.11 µM.

Compound `CCCNC(=O)C(C)C1CCC2(C)C=CC(=O)C(C)=C2C1O` (stereo unspecified) came in with a TGI above 100 µM.

Regarding `Nc1ccn(C2C=C(CO)C(O)C2O)c(=O)c1` (stereo unspecified), the TGI was above 625 µM.

In the next assay the test system is CAKI-1 renal. Briefly: NCI tumour cell line growth inhibition, 48 h.
The compound `N#C[C@H](OC1OC(COC2OC(CO)C(O)C(O)C2O)C(O)C(O)C1O)c1ccccc1` (stereo partly specified) returned a TGI above 250 µM.

In turn, `CCN(CC)c1ccc2cc(C(=O)Nc3ccc4[nH]c(C(=O)N5C[C@@H](CCl)c6c5cc(OC(=O)Nc5ccccc5)c5[nH]cc(C)c65)cc4c3)oc2c1` registered a TGI of 9.11e-05 µM.

`Cn1c(=O)c2[nH]c(CCNC(=O)c3ccccc3)nc2n(C)c1=O`: the TGI is above 100 µM.

As for `Cc1cc(S(=O)(=O)Nc2nc3ccccc3nc2-c2cccc([N+](=O)[O-])c2)c(S)cc1Cl`, the TGI was determined as 39.4 µM.

In turn, `NCCSS(=O)(=O)CCN` registered a TGI above 100 µM.

The compound `CC(=O)Oc1cc2c(cc1OC(C)=O)OCC(c1ccccc1)C2` (stereo unspecified) returned a TGI of 39.2 µM.

Take `OCCNCCN1CCN(CCCN2c3ccccc3Sc3ccc(C(F)(F)F)cc32)CC1`: the TGI is above 100 µM.

`O=C(O)c1cc2c(ncc3c(=O)n(-c4ccccc4)[nH]c32)s1` displayed a TGI above 100 µM.

`Cc1ccc(C2OC(COCc3ccc(Cl)cc3)C(OCc3ccc(Cl)cc3)C2O)cc1` (stereo unspecified): the TGI amounted to 38.3 µM.

The compound `C[N+](C)(C)CCc1ccccc1` yielded a TGI above 100 µM.

The compound `COc1c(Br)cc2c(c1OC)C(Br)CCC(Br)(Br)C2=O` (stereo unspecified) had a TGI of 8.3 µM.

On to `O=C1C=CC2(C=C1)O[C@H](Cc1ccccc1)[C@@H](Cc1ccccc1)O2`, for which the TGI was determined as 2.27 µM.

As for `CCCNC(=O)C(C)C1CCC2(C)C=CC(=O)C(C)=C2C1O` (stereo unspecified), the TGI is above 100 µM.

In turn, `O=C(Nc1nc2ccc([N+](=O)[O-])cc2s1)C(=O)C(C(=O)c1ccccc1F)C1OC(=O)c2ccccc21` (stereo unspecified) came in with a TGI of 98.5 µM.

`Nc1ccn(C2C=C(CO)C(O)C2O)c(=O)c1` (stereo unspecified) returned a TGI above 625 µM.

Another assay has as its system SW-620 colon. Briefly: NCI tumour cell line growth inhibition, 48 h.
`N#C[C@H](OC1OC(COC2OC(CO)C(O)C(O)C2O)C(O)C(O)C1O)c1ccccc1` (stereo partly specified) had a TGI above 250 µM.

Take `CCN(CC)c1ccc2cc(C(=O)Nc3ccc4[nH]c(C(=O)N5C[C@@H](CCl)c6c5cc(OC(=O)Nc5ccccc5)c5[nH]cc(C)c65)cc4c3)oc2c1`: the GI50 is 207 µM and the TGI is above 1000 µM.

With `Cn1c(=O)c2[nH]c(CCNC(=O)c3ccccc3)nc2n(C)c1=O`, the TGI is above 100 µM.

Compound `O=c1ssc(=Nc2ccccc2)n1-c1ccccc1` registered a TGI of 51.8 µM.

Take `NCCSS(=O)(=O)CCN`: the TGI is above 100 µM.

Take `CC(=O)Oc1cc2c(cc1OC(C)=O)OCC(c1ccccc1)C2` (stereo unspecified): the TGI turned out to be 18.5 µM.

`OCCNCCN1CCN(CCCN2c3ccccc3Sc3ccc(C(F)(F)F)cc32)CC1` came in with a TGI of 35.3 µM.

In turn, `O=C(O)c1cc2c(ncc3c(=O)n(-c4ccccc4)[nH]c32)s1` gave a TGI above 100 µM.

`O=C(CCl)NNC1=Nc2ccc(Cl)cc2SC1` displayed a TGI of 4.22 µM.

For the compound `CCCc1c(-c2ccccc2)[nH]c2ccccc2c1=O`, the TGI is above 100 µM.

Compound `Cc1ccc(C2OC(COCc3ccc(Cl)cc3)C(OCc3ccc(Cl)cc3)C2O)cc1` (stereo unspecified) had a TGI of 49.5 µM.

Regarding `CO/N=C(/C)c1ccc(NC(=O)CSc2nnc(-c3ccncc3)n2-c2ccccc2)cc1`, the GI50 is above 100 µM and the TGI was above 100 µM.

The compound `C[N+](C)(C)CCc1ccccc1` showed a TGI above 100 µM.

Take `COc1c(Br)cc2c(c1OC)C(Br)CCC(Br)(Br)C2=O` (stereo unspecified): the TGI amounted to 1.58 µM.

Compound `O=C1C=CC2(C=C1)O[C@H](Cc1ccccc1)[C@@H](Cc1ccccc1)O2` displayed a TGI of 0.254 µM.

In turn, `CCCNC(=O)C(C)C1CCC2(C)C=CC(=O)C(C)=C2C1O` (stereo unspecified) displayed a TGI above 100 µM.

`O=C(Nc1nc2ccc([N+](=O)[O-])cc2s1)C(=O)C(C(=O)c1ccccc1F)C1OC(=O)c2ccccc21` (stereo unspecified) yielded a TGI above 100 µM.

As to `Nc1ccn(C2C=C(CO)C(O)C2O)c(=O)c1` (stereo unspecified), the TGI is above 625 µM.

`COc1nc(=O)n(COC(CO)CN2C(=O)c3ccccc3C2=O)cc1Cc1cccc(OCc2ccccc2)c1` (stereo unspecified) came in with a TGI above 100 µM.

The next assay concerns IGROV1 ovarian. Briefly: NCI tumour cell line growth inhibition, 48 h.
Compound `N#C[C@H](OC1OC(COC2OC(CO)C(O)C(O)C2O)C(O)C(O)C1O)c1ccccc1` (stereo partly specified) returned a TGI above 250 µM.

Turning to `CCN(CC)c1ccc2cc(C(=O)Nc3ccc4[nH]c(C(=O)N5C[C@@H](CCl)c6c5cc(OC(=O)Nc5ccccc5)c5[nH]cc(C)c65)cc4c3)oc2c1`, the GI50 was 914 µM and the TGI was above 1000 µM.

On to `Cn1c(=O)c2[nH]c(CCNC(=O)c3ccccc3)nc2n(C)c1=O`, for which the TGI is above 100 µM.

Compound `Cc1cc(S(=O)(=O)Nc2nc3ccccc3nc2-c2cccc([N+](=O)[O-])c2)c(S)cc1Cl` returned a TGI of 30.4 µM.

On to `NCCSS(=O)(=O)CCN`, for which the TGI is above 100 µM.
